For 35 molecules, MIC80 results are on record in ChEMBL document CHEMBL1146065, “Structure-based optimization of azole antifungal agents by CoMFA, CoMSIA, and molecular docking” (2006).

In brackets after ≈: the same amount, converted by molar mass.

The test system of this assay is Candida albicans. The assay is described as follows: Antifungal activity against Candida albicans. It is filed as functional.
`CC(C)(C)c1ccc(CN2CCN(CC(O)(Cn3cncn3)c3ccc(F)cc3F)CC2)cc1` (stereo not given): the MIC80 was determined as 0.034 µM (≈ 0.016 µg/mL).
For the molecule `OC(CN1CCN(Cc2ccc(I)cc2)CC1)(Cn1cncn1)c1ccc(F)cc1F` (stereo not given), the MIC80 is 0.116 µM (≈ 0.0625 µg/mL).
For `OC(CN1CCN(c2ccccn2)CC1)(Cn1cncn1)c1ccc(F)cc1F` (stereo not given) the value was 0.156 µM (≈ 0.0625 µg/mL); for `Cc1cccc(CN2CCN(CC(O)(Cn3cncn3)c3ccc(F)cc3F)CC2)c1` (stereo not given), 0.292 µM (≈ 0.125 µg/mL).
In turn, `O=[N+]([O-])c1ccccc1CN1CCN(CC(O)(Cn2cncn2)c2ccc(F)cc2F)CC1` (stereo not given) displayed an MIC80 of 34.9 µM (≈ 16 µg/mL).
The figure for `N#Cc1ccc(CN2CCN(CC(O)(Cn3cncn3)c3ccc(F)cc3F)CC2)cc1` (stereo not given) is 0.285 µM (≈ 0.125 µg/mL); for `CCc1ccc(CN2CCN(CC(O)(Cn3cncn3)c3ccc(F)cc3F)CC2)cc1` (stereo not given) it is 0.566 µM (≈ 0.25 µg/mL); for `COc1ccccc1C(=O)N1CCN(CC(O)(Cn2cncn2)c2ccc(F)cc2F)CC1` (stereo not given) it is 17.5 µM (≈ 8 µg/mL).
The molecule `Cc1cccc(C(=O)N2CCN(CC(O)(Cn3cncn3)c3ccc(F)cc3F)CC2)c1` (stereo not given) had an MIC80 of 2.27 µM (≈ 1 µg/mL).
For `O=C(c1ccc(Cl)cc1)N1CCN(CC(O)(Cn2cncn2)c2ccc(F)cc2F)CC1` (stereo not given) the value was 0.541 µM (≈ 0.25 µg/mL); for `O=[N+]([O-])c1ccc(Cl)c(CN2CCN(CC(O)(Cn3cncn3)c3ccc(F)cc3F)CC2)c1` (stereo not given), 0.254 µM (≈ 0.125 µg/mL).
Molecule `OC(CN1CCN(c2cc(C(F)(F)F)cc(Cl)n2)CC1)(Cn1cncn1)c1ccc(F)cc1F` (stereo not given) had an MIC80 of 0.124 µM (≈ 0.0625 µg/mL).
The molecule `OC(CN1CCN(Cc2ccc(Br)cc2F)CC1)(Cn1cncn1)c1ccc(F)cc1F` (stereo not given) displayed an MIC80 of 0.0612 µM (≈ 0.0312 µg/mL).
As for `OC(CN1CCN(Cc2ccc(Cl)cc2)CC1)(Cn1cncn1)c1ccc(F)cc1F` (stereo not given), the MIC80 was found to be 0.0357 µM (≈ 0.016 µg/mL).
The figure for `OC(CN1CCN(Cc2ccccc2F)CC1)(Cn1cncn1)c1ccc(F)cc1F` (stereo not given) is 4.64 µM (≈ 2 µg/mL); for `Cc1ccc(CN2CCN(CC(O)(Cn3cncn3)c3ccc(F)cc3F)CC2)cc1` (stereo not given) it is 2.34 µM (≈ 1 µg/mL).
Molecule `OC(CN1CCN(Cc2ccc(Br)cc2)CC1)(Cn1cncn1)c1ccc(F)cc1F` (stereo not given) registered an MIC80 of 0.254 µM (≈ 0.125 µg/mL).
The figure for `Nc1ccc(C(=O)N2CCN(CC(O)(Cn3cncn3)c3ccc(F)cc3F)CC2)cc1` (stereo not given) is 36.2 µM (≈ 16 µg/mL); for `O=C(c1ccccc1)N1CCN(CC(O)(Cn2cncn2)c2ccc(F)cc2F)CC1` (stereo not given) it is 2.34 µM (≈ 1 µg/mL).
For `OC(CN1CCN(Cc2cc(F)ccc2Br)CC1)(Cn1cncn1)c1ccc(F)cc1F` (stereo not given) the value was 0.122 µM (≈ 0.0625 µg/mL).
For `Cc1ccccc1C(=O)N1CCN(CC(O)(Cn2cncn2)c2ccc(F)cc2F)CC1` (stereo not given) the value was 36.2 µM (≈ 16 µg/mL); for `O=C(c1ccccc1Cl)N1CCN(CC(O)(Cn2cncn2)c2ccc(F)cc2F)CC1` (stereo not given), 2.16 µM (≈ 1 µg/mL).
`OC(CN1CCN(Cc2cccc(Cl)c2)CC1)(Cn1cncn1)c1ccc(F)cc1F` (stereo not given) had an MIC80 of 0.14 µM (≈ 0.0625 µg/mL).
The figure for `OC(CN1CCN(Cc2ccc(F)cc2)CC1)(Cn1cncn1)c1ccc(F)cc1F` (stereo not given) is 0.579 µM (≈ 0.25 µg/mL).
For `O=C(c1ccc([N+](=O)[O-])cc1)N1CCN(CC(O)(Cn2cncn2)c2ccc(F)cc2F)CC1` (stereo not given) the value was 1.06 µM (≈ 0.5 µg/mL); for `CC(=O)c1ccc(N2CCN(CC(O)(Cn3cncn3)c3ccc(F)cc3F)CC2)cc1` (stereo not given), 0.0339 µM (≈ 0.015 µg/mL); for `OC(CN1CCN(Cc2ccc(Cl)cc2Cl)CC1)(Cn1cncn1)c1ccc(F)cc1F` (stereo not given), 0.0331 µM (≈ 0.016 µg/mL).
`OC(CN1CCN(Cc2ccccc2Cl)CC1)(Cn1cncn1)c1ccc(F)cc1F` (stereo not given) returned an MIC80 of 0.558 µM (≈ 0.25 µg/mL).
`O=C(c1cccc([N+](=O)[O-])c1)N1CCN(CC(O)(Cn2cncn2)c2ccc(F)cc2F)CC1` (stereo not given): the MIC80 came out at 16.9 µM (≈ 8 µg/mL).
Consider `O=C(c1ccc(F)cc1)N1CCN(CC(O)(Cn2cncn2)c2ccc(F)cc2F)CC1` (stereo not given), for which the MIC80 amounted to 2.23 µM (≈ 0.994 µg/mL).
As for `CC(C)(C)c1ccc(C(=O)N2CCN(CC(O)(Cn3cncn3)c3ccc(F)cc3F)CC2)cc1` (stereo not given), the MIC80 is 1.03 µM (≈ 0.5 µg/mL).
The molecule `Cc1ccc(C(=O)N2CCN(CC(O)(Cn3cncn3)c3ccc(F)cc3F)CC2)cc1` (stereo not given) returned an MIC80 of 18.1 µM (≈ 8 µg/mL).
For `OC(CN1CCN(Cc2ccc(F)cc2Br)CC1)(Cn1cncn1)c1ccc(F)cc1F` (stereo not given), the MIC80 was 0.122 µM (≈ 0.0625 µg/mL).
The figure for `OC(CN1CCN(Cc2cccc(I)c2)CC1)(Cn1cncn1)c1ccc(F)cc1F` (stereo not given) is 0.232 µM (≈ 0.125 µg/mL); for `COc1ccc(C(=O)N2CCN(CC(O)(Cn3cncn3)c3ccc(F)cc3F)CC2)cc1` (stereo not given) it is 0.273 µM (≈ 0.125 µg/mL).

What is called MIC80 is an inhibitory concentration at the 80% level, which refers to growth in some studies and to a panel of isolates in others.
